# Measured values: patent US12479847B2 (DANA-FARBER CANCER INSTITUTE, INC., priority 2019, dated 2025)
# Tests used:
# Assay in all cases: KINOMEscan (ScanMAX) kinase profiling
# Format in all cases: binding
# panel of 468 kinases [1] = molecular target: T1, panel of 468 kinases (Homo sapiens, UniProt P29317); settings: EPHA2; 1 μM; read-out: % control
# T1 construct: purchased KINOMEscan (ScanMAX) service
# Description: (§1) The kinase selectivity of inventive compounds 12, 75, and 77 was evaluated by KINOMEscan®. KINOMEscan® (ScanMAX™) analysis was performed against a near comprehensive panel of 468 kinases. The control percentage (% control) for inventive compounds at 1 μM in DMSO was determined by Equation 1: % control=(inventive compound−positive control)/(negative control−positive control)×100%, Equation 1
# (§2) wherein the positive control is a compound with a % control value of 0% relative light units (RLU), and the negative control (i.e., DMSO) has % control value of 100% RLU. The enzyme selectivity in the present invention is defined as follows: inventive compounds are considered active for an enzyme when the observed % control is less than 35% (<35%).
# panel of 468 kinases [2] = molecular target: T2, panel of 468 kinases (Homo sapiens, UniProt Q86UX6); settings: YANK3; 1 μM; read-out: % control
# T2 construct: purchased KINOMEscan (ScanMAX) service
# T2 sequence (Q86UX6 whole entry): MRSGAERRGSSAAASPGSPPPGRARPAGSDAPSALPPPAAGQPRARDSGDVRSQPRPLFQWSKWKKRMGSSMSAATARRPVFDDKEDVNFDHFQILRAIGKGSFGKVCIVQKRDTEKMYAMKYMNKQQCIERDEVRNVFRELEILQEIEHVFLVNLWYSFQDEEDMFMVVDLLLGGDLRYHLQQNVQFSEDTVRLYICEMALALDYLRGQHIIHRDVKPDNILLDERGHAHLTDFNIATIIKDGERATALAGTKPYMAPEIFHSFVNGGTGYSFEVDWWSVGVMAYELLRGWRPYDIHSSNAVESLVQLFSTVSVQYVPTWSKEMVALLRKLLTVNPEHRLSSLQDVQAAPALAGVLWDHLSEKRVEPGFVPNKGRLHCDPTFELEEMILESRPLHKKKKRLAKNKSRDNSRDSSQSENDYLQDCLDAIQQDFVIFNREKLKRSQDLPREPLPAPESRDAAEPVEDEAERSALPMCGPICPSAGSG
# Description: as §1, §2
# panel of 468 kinases [3] = molecular target: T3, panel of 468 kinases (Homo sapiens, UniProt O15146); settings: MUSK; 1 μM; read-out: % control
# T3 construct: purchased KINOMEscan (ScanMAX) service
# T3 sequence (O15146 24-869): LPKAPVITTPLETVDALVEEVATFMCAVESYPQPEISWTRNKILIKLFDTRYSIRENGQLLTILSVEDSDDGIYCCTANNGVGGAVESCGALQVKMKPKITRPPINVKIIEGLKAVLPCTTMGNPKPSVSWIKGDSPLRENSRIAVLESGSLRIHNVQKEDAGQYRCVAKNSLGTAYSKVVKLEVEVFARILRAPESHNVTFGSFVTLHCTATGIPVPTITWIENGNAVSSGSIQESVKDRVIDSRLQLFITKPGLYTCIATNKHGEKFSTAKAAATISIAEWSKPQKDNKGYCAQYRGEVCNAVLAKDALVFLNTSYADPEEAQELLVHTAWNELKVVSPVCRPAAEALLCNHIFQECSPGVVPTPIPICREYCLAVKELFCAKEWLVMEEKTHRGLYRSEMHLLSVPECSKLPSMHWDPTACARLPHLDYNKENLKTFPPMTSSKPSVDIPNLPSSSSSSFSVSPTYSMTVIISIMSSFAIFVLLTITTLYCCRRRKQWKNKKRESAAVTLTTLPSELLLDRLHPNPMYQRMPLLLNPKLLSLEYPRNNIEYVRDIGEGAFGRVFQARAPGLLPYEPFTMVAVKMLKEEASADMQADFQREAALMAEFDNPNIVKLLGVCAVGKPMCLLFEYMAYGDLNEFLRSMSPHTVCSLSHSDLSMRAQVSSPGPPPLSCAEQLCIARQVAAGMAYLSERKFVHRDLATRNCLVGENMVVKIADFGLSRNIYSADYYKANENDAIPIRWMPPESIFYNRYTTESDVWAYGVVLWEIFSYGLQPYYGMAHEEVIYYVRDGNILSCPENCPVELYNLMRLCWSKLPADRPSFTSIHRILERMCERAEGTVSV
# Description: as §1, §2
# panel of 468 kinases [4] = molecular target: T4, panel of 468 kinases (Homo sapiens, UniProt Q9HCP0); settings: CSNK1G1; 1 μM; read-out: % control
# T4 construct: purchased KINOMEscan (ScanMAX) service
# T4 sequence (Q9HCP0 whole entry): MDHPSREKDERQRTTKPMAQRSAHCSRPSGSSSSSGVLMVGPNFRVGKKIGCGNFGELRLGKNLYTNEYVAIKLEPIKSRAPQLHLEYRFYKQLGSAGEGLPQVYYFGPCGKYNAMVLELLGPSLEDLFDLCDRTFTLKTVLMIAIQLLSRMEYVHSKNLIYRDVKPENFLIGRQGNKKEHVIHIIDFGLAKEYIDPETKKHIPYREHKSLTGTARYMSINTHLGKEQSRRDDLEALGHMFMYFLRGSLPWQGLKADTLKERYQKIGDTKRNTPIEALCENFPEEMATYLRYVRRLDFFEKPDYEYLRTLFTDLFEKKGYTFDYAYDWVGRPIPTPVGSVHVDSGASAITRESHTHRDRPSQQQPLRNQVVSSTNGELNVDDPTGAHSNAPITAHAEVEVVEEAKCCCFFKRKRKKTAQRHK
# Description: as §1, §2
# panel of 468 kinases [5] = molecular target: T5, panel of 468 kinases (Homo sapiens, UniProt Q6DT37); settings: DMPK2; 1 μM; read-out: % control
# T5 construct: purchased KINOMEscan (ScanMAX) service
# T5 sequence (Q6DT37 whole entry): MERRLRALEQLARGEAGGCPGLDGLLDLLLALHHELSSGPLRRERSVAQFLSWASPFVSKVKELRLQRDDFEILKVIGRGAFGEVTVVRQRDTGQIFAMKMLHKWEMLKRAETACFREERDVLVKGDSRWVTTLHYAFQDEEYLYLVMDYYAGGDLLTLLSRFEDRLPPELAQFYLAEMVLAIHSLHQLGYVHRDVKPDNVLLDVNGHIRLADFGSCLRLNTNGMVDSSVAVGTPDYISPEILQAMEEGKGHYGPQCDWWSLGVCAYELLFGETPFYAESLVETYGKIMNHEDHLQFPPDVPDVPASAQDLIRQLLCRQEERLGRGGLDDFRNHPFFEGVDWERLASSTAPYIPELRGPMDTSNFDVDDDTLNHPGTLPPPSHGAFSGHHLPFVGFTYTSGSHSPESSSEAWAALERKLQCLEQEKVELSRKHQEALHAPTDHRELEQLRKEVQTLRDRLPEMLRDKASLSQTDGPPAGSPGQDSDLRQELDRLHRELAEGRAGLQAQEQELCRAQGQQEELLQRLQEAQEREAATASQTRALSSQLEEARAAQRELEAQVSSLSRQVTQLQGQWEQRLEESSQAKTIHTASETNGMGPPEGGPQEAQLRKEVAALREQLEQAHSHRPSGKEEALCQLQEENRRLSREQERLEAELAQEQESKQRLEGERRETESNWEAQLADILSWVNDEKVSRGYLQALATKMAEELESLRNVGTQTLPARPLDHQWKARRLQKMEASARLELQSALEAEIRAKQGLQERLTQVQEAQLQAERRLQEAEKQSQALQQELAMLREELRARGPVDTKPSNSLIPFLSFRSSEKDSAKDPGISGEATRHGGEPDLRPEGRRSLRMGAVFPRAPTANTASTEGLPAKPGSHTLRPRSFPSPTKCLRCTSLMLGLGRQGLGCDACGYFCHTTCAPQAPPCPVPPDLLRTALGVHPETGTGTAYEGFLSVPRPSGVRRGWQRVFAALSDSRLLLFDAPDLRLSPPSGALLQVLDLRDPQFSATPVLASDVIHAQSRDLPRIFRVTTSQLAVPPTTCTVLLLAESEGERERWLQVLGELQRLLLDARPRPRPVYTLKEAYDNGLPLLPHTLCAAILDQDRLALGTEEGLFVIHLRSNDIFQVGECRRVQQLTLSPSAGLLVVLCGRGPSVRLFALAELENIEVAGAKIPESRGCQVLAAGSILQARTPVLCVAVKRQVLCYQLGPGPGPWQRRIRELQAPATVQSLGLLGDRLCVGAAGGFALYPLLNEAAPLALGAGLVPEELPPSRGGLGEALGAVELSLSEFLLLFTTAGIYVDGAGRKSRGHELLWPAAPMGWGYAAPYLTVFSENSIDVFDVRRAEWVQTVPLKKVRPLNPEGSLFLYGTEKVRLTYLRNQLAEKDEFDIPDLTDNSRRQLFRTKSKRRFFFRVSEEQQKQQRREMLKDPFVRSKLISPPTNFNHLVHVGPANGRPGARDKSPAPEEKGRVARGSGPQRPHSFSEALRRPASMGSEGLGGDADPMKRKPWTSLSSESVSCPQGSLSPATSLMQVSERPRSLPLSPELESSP
# Description: as §1, §2
# panel of 468 kinases [6] = molecular target: T6, panel of 468 kinases (Homo sapiens, UniProt Q99759); settings: MAP3K3; 1 μM; read-out: % control
# T6 construct: purchased KINOMEscan (ScanMAX) service
# T6 sequence (Q99759 1-626): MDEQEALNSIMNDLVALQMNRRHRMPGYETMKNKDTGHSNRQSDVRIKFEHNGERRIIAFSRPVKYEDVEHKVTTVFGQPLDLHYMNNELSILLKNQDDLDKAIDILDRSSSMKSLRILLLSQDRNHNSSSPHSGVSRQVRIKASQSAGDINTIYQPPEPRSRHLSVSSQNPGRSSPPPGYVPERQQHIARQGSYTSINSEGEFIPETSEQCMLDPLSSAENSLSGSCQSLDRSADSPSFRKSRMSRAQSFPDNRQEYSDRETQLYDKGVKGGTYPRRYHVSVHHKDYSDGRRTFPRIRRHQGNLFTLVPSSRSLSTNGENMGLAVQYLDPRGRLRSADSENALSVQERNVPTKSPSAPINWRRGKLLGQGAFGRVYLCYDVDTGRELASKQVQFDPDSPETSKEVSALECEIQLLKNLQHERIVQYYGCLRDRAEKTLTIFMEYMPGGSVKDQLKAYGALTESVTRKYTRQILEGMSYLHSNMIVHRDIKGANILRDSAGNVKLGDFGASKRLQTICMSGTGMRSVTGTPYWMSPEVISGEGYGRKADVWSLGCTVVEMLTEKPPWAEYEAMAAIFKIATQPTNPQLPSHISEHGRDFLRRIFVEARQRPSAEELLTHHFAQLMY
# Description: as §1, §2
# panel of 468 kinases [7] = molecular target: T7, panel of 468 kinases (Homo sapiens, UniProt P49336); settings: CDK8; 1 μM; read-out: % control
# T7 construct: purchased KINOMEscan (ScanMAX) service
# T7 sequence (P49336 whole entry): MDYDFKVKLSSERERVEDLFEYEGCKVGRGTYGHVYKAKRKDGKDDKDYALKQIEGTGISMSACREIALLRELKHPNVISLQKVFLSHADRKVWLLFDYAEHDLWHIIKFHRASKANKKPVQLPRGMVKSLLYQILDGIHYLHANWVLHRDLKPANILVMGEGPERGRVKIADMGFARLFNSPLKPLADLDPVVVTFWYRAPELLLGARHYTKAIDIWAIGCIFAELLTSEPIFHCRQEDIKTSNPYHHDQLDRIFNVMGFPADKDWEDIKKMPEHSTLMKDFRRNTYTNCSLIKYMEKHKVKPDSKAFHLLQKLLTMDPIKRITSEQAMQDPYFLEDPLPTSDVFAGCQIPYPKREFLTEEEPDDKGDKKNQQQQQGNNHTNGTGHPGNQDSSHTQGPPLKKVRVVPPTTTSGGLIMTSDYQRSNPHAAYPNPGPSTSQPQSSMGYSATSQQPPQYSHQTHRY
# Description: as §1, §2
# panel of 468 kinases [8] = molecular target: T8, panel of 468 kinases (Homo sapiens, UniProt P00519, M351T); settings: ABL1(M351T)-phosphorylated; 1 μM; read-out: % control
# T8 construct: purchased KINOMEscan (ScanMAX) service
# Description: as §1, §2
# panel of 468 kinases [9] = molecular target: T9, panel of 468 kinases (Homo sapiens, UniProt P22455); settings: FGFR4; 1 μM; read-out: % control
# T9 construct: purchased KINOMEscan (ScanMAX) service
# T9 sequence (P22455 22-802): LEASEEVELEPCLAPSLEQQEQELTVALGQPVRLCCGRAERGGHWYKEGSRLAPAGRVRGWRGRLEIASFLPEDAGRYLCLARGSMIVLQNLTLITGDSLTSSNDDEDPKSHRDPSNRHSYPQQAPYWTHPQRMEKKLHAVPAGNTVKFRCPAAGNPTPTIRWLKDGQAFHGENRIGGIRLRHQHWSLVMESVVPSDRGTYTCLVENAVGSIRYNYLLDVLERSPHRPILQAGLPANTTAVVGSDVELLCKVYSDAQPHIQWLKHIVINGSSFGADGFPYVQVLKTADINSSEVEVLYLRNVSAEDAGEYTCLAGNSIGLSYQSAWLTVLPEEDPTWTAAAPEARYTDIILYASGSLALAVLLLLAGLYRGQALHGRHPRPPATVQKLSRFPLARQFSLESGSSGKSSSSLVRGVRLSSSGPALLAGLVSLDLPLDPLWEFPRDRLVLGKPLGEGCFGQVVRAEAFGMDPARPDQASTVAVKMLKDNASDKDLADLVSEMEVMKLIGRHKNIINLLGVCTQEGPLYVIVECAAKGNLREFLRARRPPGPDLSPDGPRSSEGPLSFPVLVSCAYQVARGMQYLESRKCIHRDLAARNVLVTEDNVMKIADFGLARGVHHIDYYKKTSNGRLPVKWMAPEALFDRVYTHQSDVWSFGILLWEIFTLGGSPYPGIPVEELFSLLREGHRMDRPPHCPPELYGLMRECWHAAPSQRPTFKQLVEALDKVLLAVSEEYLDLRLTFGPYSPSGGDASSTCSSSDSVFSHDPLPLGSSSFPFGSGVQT
# Description: as §1, §2
# T1 sequence (P29317 24-976): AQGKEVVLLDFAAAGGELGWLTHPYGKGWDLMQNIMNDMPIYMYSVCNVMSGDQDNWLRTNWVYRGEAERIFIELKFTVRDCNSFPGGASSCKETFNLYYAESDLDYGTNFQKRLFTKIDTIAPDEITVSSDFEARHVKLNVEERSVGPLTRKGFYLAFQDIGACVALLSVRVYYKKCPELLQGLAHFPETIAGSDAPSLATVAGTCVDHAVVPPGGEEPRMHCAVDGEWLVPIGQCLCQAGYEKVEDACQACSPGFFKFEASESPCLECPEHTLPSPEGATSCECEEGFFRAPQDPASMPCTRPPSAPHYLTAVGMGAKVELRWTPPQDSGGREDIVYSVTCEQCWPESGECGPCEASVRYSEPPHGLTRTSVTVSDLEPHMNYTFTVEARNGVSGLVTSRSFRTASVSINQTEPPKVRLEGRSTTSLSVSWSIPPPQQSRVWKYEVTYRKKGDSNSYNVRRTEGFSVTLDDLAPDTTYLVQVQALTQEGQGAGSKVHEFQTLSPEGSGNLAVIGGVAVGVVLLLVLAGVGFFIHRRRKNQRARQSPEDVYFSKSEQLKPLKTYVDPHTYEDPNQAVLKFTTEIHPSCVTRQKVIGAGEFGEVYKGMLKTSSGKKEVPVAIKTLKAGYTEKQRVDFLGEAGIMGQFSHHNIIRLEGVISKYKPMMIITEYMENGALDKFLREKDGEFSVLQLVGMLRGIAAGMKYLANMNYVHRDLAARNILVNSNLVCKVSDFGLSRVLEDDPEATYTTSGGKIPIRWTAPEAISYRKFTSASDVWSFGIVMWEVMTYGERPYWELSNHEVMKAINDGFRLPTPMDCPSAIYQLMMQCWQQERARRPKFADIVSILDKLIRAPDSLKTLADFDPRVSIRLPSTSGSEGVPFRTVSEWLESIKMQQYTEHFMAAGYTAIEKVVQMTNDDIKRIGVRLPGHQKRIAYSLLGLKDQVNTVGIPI
Structure (SMILES),remaining binding at 1 µM (panel of 468 kinases [1]) [%],remaining binding at 1 µM (panel of 468 kinases [2]) [%],remaining binding at 1 µM (panel of 468 kinases [3]) [%],remaining binding at 1 µM (panel of 468 kinases [4]) [%],remaining binding at 1 µM (panel of 468 kinases [5]) [%],remaining binding at 1 µM (panel of 468 kinases [6]) [%],remaining binding at 1 µM (panel of 468 kinases [7]) [%],remaining binding at 1 µM (panel of 468 kinases [8]) [%],remaining binding at 1 µM (panel of 468 kinases [9]) [%]
"CNc1nc(Nc2ccc(C(=O)N3CCC(N4CCOCC4)CC3)c3c2OCO3)nc2[nH]cc(Cl)c12 [Compound 75, (7-((5-chloro-4-(methylamino)-7H-pyrrolo[2,3-d]pyrimidin-2-yl)amino)benzo[d][1,3]dioxol-4-yl)(4-morpholinopiperidin-1-yl)methanone]",96,100,21,28,100,43,100,59,100
"CNc1nc(Nc2ccc(S(=O)(=O)N3CCC(N4CCOCC4)CC3)cc2OC)nc2[nH]cc(Cl)c12 [Compound 12, 5-chloro-N2-(2-methoxy-4-((4-morpholinopiperidin-1-yl)sulfonyl)phenyl)-N4-methyl-7H-pyrrolo[2,3-d]pyrimidine-2,4-diamine]",100,100,98,100,100,100,100,64,90
"CNc1nc(Nc2ccc(P3(=O)CCN(C4CCOCC4)CC3)cc2OC)nc2[nH]cc(Cl)c12 [Compound 77, 4-(4-((5-chloro-4-(methylamino)-7H-pyrrolo[2,3-d]pyrimidin-2-yl)amino)-3-methoxyphenyl)-1-(tetrahydro-2H-pyran-4-yl)-1,4-azaphosphinane 4-oxide]",100,100,72,100,94,100,91,70,98
